Data on 9 compounds can be found in patent US20110098296A1, “Thiazole And Oxazole Kinase Inhibitors” (priority 2007, published 2011).

Assay [1] relates to BT474 tumor cells. As to the kind of experiment: Method C: Cell Growth Inhibition Assay (CellTiter-Glo), BT474. In kind it is cell-based. The note with it: Homo sapiens, BT-474, 72 h, 3 days, 4-parameter fit. On the technique in general: In ATP-based viability assays light output follows the ATP content of the culture.
For assay [2], the target named is B-Raf (Homo sapiens, UniProt P15056). As to the kind of experiment: B-Raf Accelerated MEK ATPase assay (BRAMA). In kind it is biochemical. The note with it: Method (A): BRAMA, kinetic read. The protocol:
Compounds of the present invention were tested for B-Raf protein serine kinase inhibitory activity in a B-Raf Accelerated MEK ATPase assay (BRAMA). The BRAMA assay is a high sensitivity assay which measures an intrinsic MEK-mediated ATP hydrolysis uncoupled from downstream ERK phosphorylation by coupling the formation of ADP to NADH oxidation through the enzymes pyruvate kinase and lactate dehydrogenase. When ADP production is initiated by addition of catalytic amounts of an activated Raf enzyme and non-phosphorylated MEK, one observes robust ADP production concomitant with Raf-mediated phosphorylation of MEK.
Method A: Specific details of the assay are disclosed in: C. Rominger, M. Schaber, E. May. Assay for B-Raf Activity Based on Intrinsic MEK ATPase Activity. Statutory Invention Registration Ser. No. 11/084,993 (March, 2005). Method B: The method is the same as method A, but includes the following changes: 1) the assay was performed with a final MEK concentration of 150 nM and 2) the assay was read as single end point instead of a kinetic read.

Assay [3] has as its system Colo205 tumor cells. Briefly: Method B: CellTiter-Glo Growth Inhibition Assay, Colo205. In kind it is cell-based. The note with it: Homo sapiens, COLO 205, 72 h, 3 days. The method, boiled down: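 Cells plated (BT474 3,000, HN5 500, Colo205 3,000 per well) in RPMI or DMEM with 10% FBS; compounds added next day, final DMSO 0.3%, then 3 days at 37° C, 5% CO2. Viability by CellTiter-Glo luminescence; percent inhibition versus vehicle, IC50 interpolated by nonlinear regression.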

Structures are written as SMILES.

Sequence of B-Raf (P15056 whole entry): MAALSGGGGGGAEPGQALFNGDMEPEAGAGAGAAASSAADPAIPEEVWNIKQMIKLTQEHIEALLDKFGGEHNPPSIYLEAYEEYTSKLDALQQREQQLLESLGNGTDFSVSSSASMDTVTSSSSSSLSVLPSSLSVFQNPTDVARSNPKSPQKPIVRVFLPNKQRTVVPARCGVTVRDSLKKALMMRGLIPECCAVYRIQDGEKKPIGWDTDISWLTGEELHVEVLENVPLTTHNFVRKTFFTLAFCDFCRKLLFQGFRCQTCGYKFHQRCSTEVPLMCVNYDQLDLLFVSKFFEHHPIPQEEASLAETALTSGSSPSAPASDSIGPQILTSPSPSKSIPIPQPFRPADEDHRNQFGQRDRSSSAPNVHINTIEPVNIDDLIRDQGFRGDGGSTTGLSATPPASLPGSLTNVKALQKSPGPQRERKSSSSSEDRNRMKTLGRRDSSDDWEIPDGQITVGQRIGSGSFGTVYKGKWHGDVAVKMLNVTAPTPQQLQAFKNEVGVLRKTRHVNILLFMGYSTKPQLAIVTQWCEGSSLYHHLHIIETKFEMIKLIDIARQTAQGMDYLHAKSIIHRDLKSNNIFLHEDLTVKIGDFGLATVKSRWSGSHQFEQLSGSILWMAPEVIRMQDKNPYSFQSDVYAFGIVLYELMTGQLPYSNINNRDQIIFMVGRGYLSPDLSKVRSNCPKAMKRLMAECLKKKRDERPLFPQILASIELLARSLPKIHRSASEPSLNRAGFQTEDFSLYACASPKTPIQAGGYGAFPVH

As usually defined, the IC50 is the concentration that inhibits the measured activity by half. Low values mean greater potency, high ones weaker potency. For `COc1cc(Nc2nccc(-c3sc(N)nc3-c3cccc(NC(=O)c4c(F)cccc4F)c3)n2)cc(OC)c1OC` [Example 16, N-[3-(2-Amino-5-{2-[(3,4,5-trimethoxyphenyl)amino]pyrimidiN-4-yl}-1,3-thiazol-4-yl)phenyl]-2,6-difluorobenzamide], in assay [1], the IC50 was less than 100 nM.

In the case of `COc1ccc(Nc2nccc(-c3sc(N)nc3-c3cccc(NC(=O)c4c(F)cccc4F)c3)n2)cc1N1CCNCC1` [Example 18, N-[3-(2-Amino-5-{2-[(4-methoxy-3-piperaziN-1-ylphenyl)amino]pyrimidiN-4-yl}-1,3-thiazol-4-yl)phenyl]-2,6-difluorobenzamide], the IC50 in assay [1] was 100 to 1000 nM.

Consider `Cc1cc(-c2sc(N)nc2-c2cccc(NC(=O)c3c(F)cccc3F)c2)nc(Nc2cccc(F)c2)n1` [Example 48, N-[3-(2-Amino-5-{2-[(3-fluorophenyl)amino]-6-methyl-4-pyrimidinyl}-1,3-thiazol-4-yl)phenyl]-2,6-difluorobenzamide], for which the IC50 in assay [2] and in assay [1] was greater than 1000 nM throughout.

As for `CCNc1nc(-c2cccc(NC(=O)C3CC3)c2)c(-c2ccnc(Nc3ccc(OCCN4CCCC4)c(Cl)c3)n2)s1` [Example 63, N-{3-[5-{2-[(3-Chloro-4-{[2-(1-pyrrolidinyl)ethyl]oxy}phenyl)amino]-4-pyrimidinyl}-2-(ethylamino)-1,3-thiazol-4-yl]phenyl}cyclopropanecarboxamide], the half-maximal inhibitory concentration (IC50) in assay [3] and in assay [1] was 100 to 1000 nM in each case.

`Nc1nc(-c2cccc(C(=O)Nc3c(F)cccc3F)c2)c(-c2ccnc(Nc3cccc(CN4CCCC4)c3)n2)s1` [Example 77, 3-[2-Amino-5-(2-{[3-(1-pyrrolidinylmethyl)phenyl]amino}-4-pyrimidinyl)-1,3-thiazol-4-yl]-N-(2,6-difluorophenyl)benzamide]: the IC50 is less than 100 nM in assay [3] and 100 to 1000 nM in assay [1].

In the case of `Cc1nc(-c2cccc(NC(=O)c3c(F)cccc3F)c2)c(-c2ccnc(Nc3ccc(OCCN(C)C)c(Cl)c3)n2)s1` [Example 103, N-[3-(5-{2-[(3-Chloro-4-{[2-(dimethylamino)ethyl]oxy}phenyl)amino]-4-pyrimidinyl}-2-methyl-1,3-thiazol-4-yl)phenyl]-2,6-difluorobenzamide], the IC50 in assay [3] was greater than 1000 nM; in assay [1] it was less than 100 nM.

As to `Cc1nc(-c2cccc(NC(=O)c3c(F)cccc3F)c2)c(-c2ccnc(Nc3ccc(OC4CCN(C(=O)OCc5ccccc5)CC4)c(F)c3)n2)s1` [Example 106], the IC50 in assay [2] is 100 to 1000 nM; in assay [1] it was greater than 1000 nM.

On to `CCc1nc(-c2cccc(NC(=O)c3c(F)cccc3F)c2)c(-c2ccnc(Nc3cccc(CN4CCCC4)c3)n2)s1` [Example 115, N-{3-[2-Ethyl-5-(2-{[3-(1-pyrrolidinylmethyl)phenyl]amino}-4-pyrimidinyl)-1,3-thiazol-4-yl]phenyl}-2,6-difluorobenzamide], for which the IC50 in assay [2] and in assay [1] was 100 to 1000 nM throughout.

As for `Cc1nc(-c2cccc(NC(=O)c3cc(F)ccc3F)c2)c(-c2ccnc(Nc3ccc(OCCN(C)C)c(Cl)c3)n2)o1` [Example 142], the IC50 in assay [3] was greater than 1000 nM.
